{
  "source": "patent EP0597303A2",
  "about": "“Cephalosporin derivatives” (priority 1992, dated 1994)",
  "assay_in_all_cases": "MIC, Agar (Mueller Hinton) Dilution Method",
  "format_in_all_cases": "cell-based",
  "key": {"[1]": {"tested_on": "Candida albicans 155", "conditions": "Gram Positive and Others", "source_text": "(§1) The in vitro activity of the compounds of formula I of the present invention as measured by the Minimum Inhibitory Concentration (MIC) in micrograms/ml utilizing the Agar (Mueller Hinton) Dilution Method against a variety of Gram-positive and Gram-negative organisms, is set forth in Table 1."}, "[2]": {"tested_on": "Citrobacter freundii BS-16", "conditions": "BS16; Citrobacter freundii BS-16; constitutive ß-lactamase producer; Gram Negative; read-out: MIC", "source_text": "as §1"}, "[3]": {"tested_on": "E. coli 1269B", "conditions": "Escherichia coli, Gram Negative", "source_text": "as §1"}, "[4]": {"tested_on": "E. coli 1527E", "conditions": "Escherichia coli, Gram Negative", "source_text": "as §1"}, "[5]": {"tested_on": "E. coli 1573E", "conditions": "Escherichia coli; E. coli 1573E; Gram Negative; read-out: MIC", "source_text": "as §1"}, "[6]": {"tested_on": "E. coli 1894 E", "conditions": "Escherichia coli; E. coli 1894 E; Gram Negative; read-out: MIC", "source_text": "as §1"}, "[7]": {"tested_on": "E. coli 2721B", "conditions": "Escherichia coli; E. coli 2721B; Gram Negative; read-out: MIC", "source_text": "as §1"}, "[8]": {"tested_on": "E. coli 2722B", "conditions": "Escherichia coli, Gram Negative", "source_text": "as §1"}, "[9]": {"tested_on": "E. coli 4", "conditions": "Escherichia coli, 4", "source_text": "as §1"}, "[10]": {"tested_on": "E. coli B", "conditions": "Escherichia coli, Gram Negative", "source_text": "as §1"}, "[11]": {"tested_on": "E. coli DC-0", "conditions": "Escherichia coli, DC0, Gram Negative", "source_text": "as §1"}, "[12]": {"tested_on": "E. coli HMS1", "conditions": "Escherichia coli, HMS1", "source_text": "as §1"}, "[13]": {"tested_on": "E. coli Leo HA2", "conditions": "Escherichia coli, LEOHA2, Gram Negative", "source_text": "as §1"}, "[14]": {"tested_on": "E. coli TEM-1a", "conditions": "Escherichia coli, TEM1A", "source_text": "as §1"}, "[15]": {"tested_on": "Enterobacter cloacae P99", "source_text": "as §1"}, "[16]": {"tested_on": "K. oxytoca 1082EN", "conditions": "Klebsiella oxytoca; K. oxytoca 1082EN; Gram Negative; read-out: MIC", "source_text": "as §1"}, "[17]": {"tested_on": "Prot. mirabilis 503-1136", "conditions": "Proteus mirabilis, 5031136; Prot. mirabilis 503-1136; Gram Negative; read-out: MIC", "source_text": "as §1"}, "[18]": {"tested_on": "Prot. mirabilis 620A", "conditions": "Proteus mirabilis; Prot. mirabilis 620A; Gram Negative; read-out: MIC", "source_text": "as §1"}, "[19]": {"tested_on": "Prot. mirabilis 90", "conditions": "Proteus mirabilis; Prot. mirabilis 90; Gram Negative; read-out: MIC", "source_text": "as §1"}, "[20]": {"tested_on": "Proteus vulgaris ATCC 6380", "conditions": "ATCC6380; Proteus vulgaris ATCC 6380; constitutive ß-lactamase producer; Gram Negative; read-out: MIC", "source_text": "as §1"}, "[21]": {"tested_on": "Ps. aeruginosa 1937E", "conditions": "Pseudomonas aeruginosa, Gram Negative", "source_text": "as §1"}, "[22]": {"tested_on": "Ps. aeruginosa 1973 E", "conditions": "Pseudomonas aeruginosa, Gram Negative", "source_text": "as §1"}, "[23]": {"tested_on": "Ps. aeruginosa 56-1B", "conditions": "Pseudomonas aeruginosa, 561B; Ps. aeruginosa 56-1B; Gram Negative; read-out: MIC", "source_text": "as §1"}, "[24]": {"tested_on": "Ps. aeruginosa 56", "conditions": "Pseudomonas aeruginosa, Gram Negative", "source_text": "as §1"}, "[25]": {"tested_on": "Ps. aeruginosa ATCC 27853", "conditions": "Pseudomonas aeruginosa, ATCC27853, Gram Negative", "source_text": "as §1"}, "[26]": {"tested_on": "Pseudomonas aeruginosa 5712", "conditions": "Gram Negative", "source_text": "as §1"}, "[27]": {"tested_on": "Ser. marcescens MA", "conditions": "Serratia marcescens, Gram Negative", "source_text": "as §1"}, "[28]": {"tested_on": "Serratia marcescens SM", "conditions": "Serratia marcescens SM; constitutive ß-lactamase producer; Gram Negative; read-out: MIC", "source_text": "as §1"}, "[29]": {"tested_on": "Staph. aureus 3037B", "conditions": "Staphylococcus aureus; Staph. aureus 3037B; Gram Positive and Others; read-out: MIC", "source_text": "as §1"}, "[30]": {"tested_on": "Staph. aureus 3647B", "conditions": "Staphylococcus aureus; Staph. aureus 3647B; Gram Positive and Others; read-out: MIC", "source_text": "as §1"}, "[31]": {"tested_on": "Staph. aureus 404", "conditions": "Staphylococcus aureus; Staph. aureus 404; Gram Positive and Others; read-out: MIC", "source_text": "as §1"}, "[32]": {"tested_on": "Staph. aureus 82", "conditions": "Staphylococcus aureus, 82", "source_text": "as §1"}, "[33]": {"tested_on": "Staph. aureus 95", "conditions": "Staphylococcus aureus; Staph. aureus 95; Gram Positive and Others; read-out: MIC", "source_text": "as §1"}, "[34]": {"tested_on": "Staph. aureus ATCC 25923", "conditions": "Staphylococcus aureus, ATCC25923, Gram Positive and Others", "source_text": "as §1"}, "[35]": {"tested_on": "Staph. aureus ATCC 29213", "conditions": "Staphylococcus aureus, ATCC29213; Staph. aureus ATCC 29213; Gram Positive and Others; read-out: MIC", "source_text": "as §1"}, "[36]": {"tested_on": "Staph. aureus Evans", "conditions": "Staphylococcus aureus", "source_text": "as §1"}, "[37]": {"tested_on": "Staph. pyogenes 4", "conditions": "Staph. pyogenes 4; Gram Positive and Others; read-out: MIC", "source_text": "as §1"}, "[38]": {"tested_on": "Staphylococcus aureus Smith", "conditions": "Staphylococcus aureus Smith; Gram Positive and Others; read-out: MIC", "source_text": "as §1"}, "[39]": {"tested_on": "Str. pneumoniae N82-012-MC", "conditions": "Streptococcus pneumoniae, N82012MC; Str. pneumoniae N82-012-MC; Gram Positive and Others; read-out: MIC", "source_text": "as §1"}},
  "note": "Counter-ions that a name gives are not always drawn.",
  "data": [
    {"smiles": "N#CCC(=O)N[C@@H]1C(=O)N2C(C(=O)O)=C(COC(=O)NC3CCN(c4c(F)cc5c(=O)c(C(=O)O)cn(C6CC6)c5c4F)C3)CS[C@H]12", "note": "(stereo partly drawn) [Formula Ib, [6R,7R]-3-[[[[[1-(3-Carboxy-1-cyclopropyl-6,8-difluoro-1,4-dihydro-4-oxo-7-quinolinyl-3-[R,S]-pyrrolidinyl]-amino]carbonyl]oxy]methyl]-7-[(cyanoacetyl)amino]-8-oxo-5-thia-1-azabicyclo[4.2.0]oct-2-ene-2-carboxyiic acid monosodium salt]", "values": [
      {"measurement": "MIC", "setting": "[1]", "result": "> 128", "unit": "µg/mL"},
      {"measurement": "MIC", "setting": "[2]", "result": 0.0625, "unit": "µg/mL"},
      {"measurement": "MIC", "setting": "[3]", "result": 0.0625, "unit": "µg/mL"},
      {"measurement": "MIC", "setting": "[4]", "result": 0.0625, "unit": "µg/mL"},
      {"measurement": "MIC", "setting": "[5]", "result": 0.0625, "unit": "µg/mL"},
      {"measurement": "MIC", "setting": "[6]", "result": 0.0625, "unit": "µg/mL"},
      {"measurement": "MIC", "setting": "[7]", "result": 0.0625, "unit": "µg/mL"},
      {"measurement": "MIC", "setting": "[8]", "result": "≤ 0.0156", "unit": "µg/mL"},
      {"measurement": "MIC", "setting": "[9]", "result": 0.125, "unit": "µg/mL"},
      {"measurement": "MIC", "setting": "[10]", "result": 0.0625, "unit": "µg/mL"},
      {"measurement": "MIC", "setting": "[11]", "result": 1, "unit": "µg/mL"},
      {"measurement": "MIC", "setting": "[12]", "result": 0.0313, "unit": "µg/mL"},
      {"measurement": "MIC", "setting": "[13]", "result": 0.0156, "unit": "µg/mL"},
      {"measurement": "MIC", "setting": "[14]", "result": 0.125, "unit": "µg/mL"},
      {"measurement": "MIC", "setting": "[15]", "result": 0.0313, "unit": "µg/mL"},
      {"measurement": "MIC", "setting": "[16]", "result": 0.0625, "unit": "µg/mL"},
      {"measurement": "MIC", "setting": "[17]", "result": 0.25, "unit": "µg/mL"},
      {"measurement": "MIC", "setting": "[18]", "result": 0.25, "unit": "µg/mL"},
      {"measurement": "MIC", "setting": "[19]", "result": 1, "unit": "µg/mL"},
      {"measurement": "MIC", "setting": "[20]", "result": 0.25, "unit": "µg/mL"},
      {"measurement": "MIC", "setting": "[21]", "result": 0.5, "unit": "µg/mL"},
      {"measurement": "MIC", "setting": "[22]", "result": 0.5, "unit": "µg/mL"},
      {"measurement": "MIC", "setting": "[23]", "result": 0.5, "unit": "µg/mL"},
      {"measurement": "MIC", "setting": "[24]", "result": 0.5, "unit": "µg/mL"},
      {"measurement": "MIC", "setting": "[25]", "result": 1, "unit": "µg/mL"},
      {"measurement": "MIC", "setting": "[26]", "result": 2, "unit": "µg/mL"},
      {"measurement": "MIC", "setting": "[27]", "result": 4, "unit": "µg/mL"},
      {"measurement": "MIC", "setting": "[28]", "result": 0.25, "unit": "µg/mL"},
      {"measurement": "MIC", "setting": "[29]", "result": 0.25, "unit": "µg/mL"},
      {"measurement": "MIC", "setting": "[30]", "result": 0.25, "unit": "µg/mL"},
      {"measurement": "MIC", "setting": "[31]", "result": 0.25, "unit": "µg/mL"},
      {"measurement": "MIC", "setting": "[32]", "result": 0.125, "unit": "µg/mL"},
      {"measurement": "MIC", "setting": "[33]", "result": 0.25, "unit": "µg/mL"},
      {"measurement": "MIC", "setting": "[34]", "result": 0.25, "unit": "µg/mL"},
      {"measurement": "MIC", "setting": "[35]", "result": 0.25, "unit": "µg/mL"},
      {"measurement": "MIC", "setting": "[36]", "result": 0.125, "unit": "µg/mL"},
      {"measurement": "MIC", "setting": "[37]", "result": 0.0625, "unit": "µg/mL"},
      {"measurement": "MIC", "setting": "[38]", "result": 0.25, "unit": "µg/mL"},
      {"measurement": "MIC", "setting": "[39]", "result": 0.5, "unit": "µg/mL"}
    ]}
  ]
}
